Experiments:
Experiment in all cases: relative viability (nuclei count vs DMSO), 5 days (fraction); higher = more cells survive
Seliciclib + Linsitinib = compound: CC[C@H](CO)Nc1nc(NCc2ccccc2)c2ncn(C(C)C)c2n1 [Seliciclib] + C[C@]1(O)C[C@@H](c2nc(-c3ccc4ccc(-c5ccccc5)nc4c3)c3c(N)nccn32)C1 [Linsitinib] (partner 1 µM)
Summary of the method: (§1)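 One day after seeding in 1536-well plates, lung cancer cell lines were dosed by pin tool. Dosing was either single-drug or a fixed anchor-drug dose plus five library-drug doses (not always all listed) in √10 steps. After 5 days, nuclei were stained in one fix-and-stain step and counted on 4× images, and relative viability is the nuclei count of treated wells over that of vehicle wells, given as the median of duplicate plates.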

Seliciclib + Pemetrexed = compound: CC[C@H](CO)Nc1nc(NCc2ccccc2)c2ncn(C(C)C)c2n1 [Seliciclib] + Nc1nc2[nH]cc(CCc3ccc(C(=O)N[C@@H](CCC(=O)O)C(=O)O)cc3)c2c(=O)[nH]1 [Pemetrexed] (partner 0.2 µM)
Summary of the method: as §1

Seliciclib + Vorinostat = compound: CC[C@H](CO)Nc1nc(NCc2ccccc2)c2ncn(C(C)C)c2n1 [Seliciclib] + O=C(CCCCCCC(=O)Nc1ccccc1)NO [Vorinostat] (partner 1 µM)
Summary of the method: as §1

Seliciclib + Olaparib = compound: CC[C@H](CO)Nc1nc(NCc2ccccc2)c2ncn(C(C)C)c2n1 [Seliciclib] + O=C(c1cc(Cc2n[nH]c(=O)c3ccccc23)ccc1F)N1CCN(C(=O)C2CC2)CC1 [Olaparib] (partner 8 µM)
Summary of the method: as §1

Row | Cell Line | relative viability (Seliciclib + Linsitinib; first compound 0.08 µM) | relative viability (Seliciclib + Linsitinib; first compound 0.253 µM) | relative viability (Seliciclib + Linsitinib; first compound 0.8 µM) | relative viability (Seliciclib + Linsitinib; first compound 2.53 µM) | relative viability (Seliciclib + Linsitinib; first compound 8 µM) | relative viability (Seliciclib + Pemetrexed; first compound 0.08 µM) | relative viability (Seliciclib + Pemetrexed; first compound 0.253 µM) | relative viability (Seliciclib + Pemetrexed; first compound 0.8 µM) | relative viability (Seliciclib + Pemetrexed; first compound 2.53 µM) | relative viability (Seliciclib + Pemetrexed; first compound 8 µM) | relative viability (Seliciclib + Vorinostat; first compound 0.08 µM) | relative viability (Seliciclib + Vorinostat; first compound 0.253 µM) | relative viability (Seliciclib + Vorinostat; first compound 0.8 µM) | relative viability (Seliciclib + Vorinostat; first compound 2.53 µM) | relative viability (Seliciclib + Vorinostat; first compound 8 µM) | relative viability (Seliciclib + Olaparib; first compound 0.08 µM) | relative viability (Seliciclib + Olaparib; first compound 0.253 µM) | relative viability (Seliciclib + Olaparib; first compound 0.8 µM) | relative viability (Seliciclib + Olaparib; first compound 2.53 µM) | relative viability (Seliciclib + Olaparib; first compound 8 µM)
1 | EKVX | 0.925 | 1.1 | 0.94 | 1.14 | 0.711 | 0.368 | 0.37 | 0.354 | 0.379 | 0.472 | 0.627 | 0.857 | 0.553 | 0.633 | 0.593 | 0.772 | 1.08 | 0.749 | 0.682 | 0.775
2 | EMC-BAC-2 | 0.835 | 0.805 | 0.775 | 0.894 | 0.754 | 0.417 | 0.476 | 0.547 | 0.468 | 0.508 | 0.454 | 0.414 | 0.547 | 0.259 | 0.307 | 0.493 | 0.494 | 0.59 | 0.447 | 0.446
3 | EPLC-272H | 1.32 | 1.09 | 1.04 | 1.35 | 0.927 | 0.326 | 0.357 | 0.274 | 0.329 | 0.229 | 0.43 | 0.506 | 0.476 | 0.311 | 0.405 | 0.919 | 0.729 | 0.667 | 0.791 | 0.441
4 | H3255 | 0.872 | 0.926 | 1.02 | 1.16 | 0.891 | 0.555 | 0.624 | 0.639 | 0.471 | 0.534 | 0.854 | 0.825 | 0.855 | 0.691 | 0.755 | 0.545 | 0.575 | 0.552 | 0.518 | 0.518
5 | HARA | 0.978 | 1.02 | 0.943 | 1.1 | 1.01 | 0.238 | 0.28 | 0.244 | 0.227 | 0.21 | 0.555 | 0.518 | 0.588 | 0.381 | 0.487 | 1.05 | 0.66 | 0.784 | 0.909 | 0.924
6 | HCC-15 | 0.931 | 0.986 | 0.861 | 0.941 | 0.667 | 0.221 | 0.223 | 0.219 | 0.218 | 0.226 | 0.893 | 0.855 | 0.838 | 0.747 | 0.761 | 0.707 | 0.792 | 0.72 | 0.796 | 0.669
7 | HCC-44 | 0.64 | 0.626 | 0.633 | 0.697 | 0.649 | 0.631 | 0.676 | 0.684 | 0.617 | 0.645 | 1.14 | 1.19 | 1.06 | 1.08 | 1.07 | 0.978 | 1.03 | 1.01 | 0.966 | 0.973
8 | HCC-78 | 0.478 | 0.558 | 0.49 | 0.596 | 0.404 | 0.852 | 0.89 | 0.914 | 0.958 | 0.88 | 0.393 | 0.518 | 0.389 | 0.396 | 0.32 | 0.693 | 0.906 | 0.695 | 0.604 | 0.499
